Reference: PMC11360128, “Rigid Macrocycle Metal Complexes as CXCR4 Chemokine Receptor Antagonists: Influence of Ring Size” (Pharmaceutics, 2024)
Read-outs that look alike come from different tables or passages of the source.

What was measured:
CCR5 [1] = biological target: T1, CCR5 (Homo sapiens, UniProt P51681); assay: CCL3L1-induced intracellular calcium mobilisation in CCR5-transfected U87 cells (FLIPR); format: cell-based; conditions: mean ± SEM, read-out: Ca^2+ Signalling Assay IC50 CCL3L1
T1 construct: endogenous in cells
T1 sequence (P51681 whole entry): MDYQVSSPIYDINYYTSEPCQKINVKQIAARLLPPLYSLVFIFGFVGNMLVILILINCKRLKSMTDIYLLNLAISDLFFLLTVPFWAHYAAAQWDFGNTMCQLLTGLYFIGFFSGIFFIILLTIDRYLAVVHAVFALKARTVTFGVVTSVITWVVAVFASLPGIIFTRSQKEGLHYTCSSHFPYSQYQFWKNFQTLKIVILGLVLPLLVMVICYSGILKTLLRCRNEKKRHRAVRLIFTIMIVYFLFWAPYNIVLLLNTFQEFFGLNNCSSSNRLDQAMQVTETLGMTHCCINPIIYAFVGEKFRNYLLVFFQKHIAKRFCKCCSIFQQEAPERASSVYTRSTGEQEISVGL
Method: CXCR4- or CCR5-positive U87 glioblastoma/astrocytoma cells were loaded with the fluorescent calcium indicator Fluo-3 acetoxymethyl (Molecular Probes) at 4 µM in the assay buffer (Hanks’ balanced salt solution with 20 mM HEPES buffer and 0.2% bovine serum albumin, pH 7.4) for 45 min at room temperature. After thorough washing with the assay buffer, cells were pre-incubated for 10 min at 37 °C in the same buffer with the compounds of interest. The intracellular calcium mobilisation in response to CXCL12 (CXCR4 chemokine ligand) or CCL3L1 (CCR5 chemokine ligand) was then measured at 37 °C by monitoring the fluorescence as a function of time simultaneously in all the wells by using a fluorometric imaging plate reader (FLIPR; Molecular Devices, Sunnyvale, CA, USA).
The potency of the different metal complexes was investigated in a functional downstream receptor signalling assay. The inhibitory effect of the tested compounds was examined by Ca^2+ mobilisation studies with the natural ligands CXCL12 and CCL3L1 for the chemokine receptors CXCR4 and CCR5, respectively. The Ca^2+ ions released from the endoplasmic reticulum were measured over time in CXCR4- or CCR5-transfected U87 glioblastoma cells via their specific interaction with the fluorescent Ca^2+ indicator Fluo-3 [63].

HIV-1 NL4-3 (X4) = assay: HIV infection assay, Tat-regulated luciferase reporter in TZM-bl cells, CXCR4-using strain; format: cell-based; conditions: replication of HIV-1 NL4-3 (X4) in TZM-bl cells, mean ± SEM, read-out: Anti-HIV Activity IC50 NL4-3 (X4)
From the text: (§1) Buffy coat preparations from healthy donors were obtained from the Blood Bank in Leuven, Belgium. For the chemokine binding studies, peripheral blood mononuclear cells (PBMCs) activated with phytohemagglutinin (PHA; Sigma, Belgium) were used. Human T-lymphocytic SUP-T1 cells and TZM-bl cells were obtained from the American Type Culture Collection (Rockville, MD) and maintained in RPMI-1640 supplemented with 10% foetal bovine serum (FBS). Human glioblastoma U87.MG and U87.CD4 cells were kindly provided by Dr. D. Littman and used to generate cells expressing CXCR4 or CCR5 [48]. The fluorescent chemokines CXCL12^AF647 and CCL5^AF647 were purchased from Almac. […]
(§2) TZM-bl cells were seeded in transparent 96-well plates at 1 × 10^4 cells per well in DMEM (Dulbecco’s modified Eagle medium; Life Technologies, Waltham, MA, USA) with 10% FBS and 10 mM HEPES. […] After 48 h of incubation, the assay plates were analysed. […] The luminescent signal of the lysed cell suspension was analysed in white 96-well plates on a Spectra-Max L luminescence microplate reader (Molecular Devices, Sunnyvale, CA, USA) after a 10 min incubation period in the dark. Luciferase activity induced by HIV-1 Tat protein expression was measured as an assessment of the amount of HIV replication. […]

PHA-stimulated PBMCs = assay: Cellular cytotoxicity, microscopic evaluation and MTS assay; format: cell-based, human; conditions: 48 h, MTS, read-out: Toxicity CC50 PMBCs
From the text: (§3) Buffy coat preparations from healthy donors were obtained from the Blood Bank in Leuven, Belgium. For the chemokine binding studies, peripheral blood mononuclear cells (PBMCs) activated with phytohemagglutinin (PHA; Sigma, Belgium) were used. Human T-lymphocytic SUP-T1 cells and TZM-bl cells were obtained from the American Type Culture Collection (Rockville, MD) and maintained in RPMI-1640 supplemented with 10% foetal bovine serum (FBS). Human glioblastoma U87.MG and U87.CD4 cells were kindly provided by Dr. D. Littman and used to generate cells expressing CXCR4 or CCR5 [48]. The fluorescent chemokines CXCL12^AF647 and CCL5^AF647 were purchased from Almac. […] HIV-1 NL4-3 (CXCR4-using, X4) and HIV-1 BaL (CCR5-using, R5) were obtained through the AIDS Research and Reference Reagent Program (Division of AIDS, NIAID, NIH).
(§4) Cytotoxicity of the compounds was evaluated after 48 h of incubation at 37 °C in PHA-stimulated PBMCs (5 × 10^5 cells per well in culture medium). Each condition was tested in duplicate. Cytotoxicity was evaluated microscopically, and in addition, the cell viability was assessed using the colorimetric CellTiter 96 AQueous One Solution Cell Proliferation Assay (Promega, Fitchburg, WI, USA), which is based on the reduction of the tetrazolium salt MTS [3-(4,5-dimethylthiazol-2-yl)-5-(3-carboxymethoxyphenyl)-2-(4-sulfophenyl)-2H-tetrazolium] to formazan by metabolically active cells. Absorbance at 490 nm was measured with the Versa-Max ELISA microplate reader (Molecular Devices, Sunnyvale, CA, USA). The cytotoxic concentration 50 (CC50) of each compound was calculated based on the absorbance of negative (i.e., cells without compound) and positive (i.e., only culture medium) control samples.
(§5) The cellular cytotoxicity of all compounds was evaluated in PHA-stimulated PBMCs.

[2] = as above; format: cell-based, human; conditions: human, PHA-stimulated PBMCs, MTS, read-out: Toxicity CC50 PMBCs
From the text: as §3, §4, §5

HIV-1 BaL (R5) = assay: microbe, parasite or virus in culture; conditions: read-out: Anti-HIV Activity IC50 BaL (R5)
From the text: as §1, §2

CCR5 [3] = biological target: T1, CCR5; assay: CCL5^AF647 chemokine binding inhibition assay in PBMCs; conditions: AF647-labelled CCL5 in PBMCs; mean ± SEM; read-out: Competition Binding Assay IC50 CCL5
Method: Human PBMCs were washed once with assay buffer (Hanks’ balanced salt solution with 20 mM HEPES buffer and 0.2% bovine serum albumin, pH 7.4) and then incubated for 15 min at room temperature with the sample diluted in assay buffer at the indicated concentrations. Subsequently, CXCL12^AF647 (25 ng/mL) or CCL5^AF647 (50 ng/mL) was added to the compound-incubated cells. The cells were incubated for 30 min at room temperature. Thereafter, the cells were washed twice in assay buffer, fixed in 1% paraformaldehyde in PBS, and analysed on the FL4 channel of a FACSCalibur flow cytometer equipped with a 635 nm red diode laser (Becton Dickinson, San Jose, CA, USA). The percentage of inhibition of CXCL12^AF647 or CCL5^AF647 binding was calculated according to the formula: [1 − ((MFI − MFINC)/(MFIPC − MFINC))] × 100, where MFI is the mean fluorescence intensity of the cells incubated with CXCL12^AF647 or CCL5^AF647 in the presence of the inhibitor, MFINC is the mean fluorescence intensity measured in the negative control (i.e., autofluorescence of unlabelled cells), and MFIPC is the mean fluorescence intensity of the positive control (i.e., cells exposed to CXCL12^AF647 or CCL5^AF647 alone).
Binding affinity and selectivity towards CXCR4 were further evaluated through competition binding assays using natural chemokine ligands, tagged with Alexa Fluor 647, as previously reported. […]

Compound	IC50 (CCR5 [1]) [µM]	IC50 (HIV-1 NL4-3 (X4); Human immunodeficiency virus 1, NL43) [µM]	CC50 (PHA-stimulated PBMCs) [µM]	CC50 at 48 h [2] [µM]	IC50 (HIV-1 BaL (R5); Human immunodeficiency virus 1, BAL, TZM-bl) [µM]	IC50 (CCR5 [3]) [µM]	IC50 (HIV-1 NL4-3 (X4)) [µM]	IC50 (HIV-1 BaL (R5); replication of HIV-1 BaL (R5) in TZM-bl cells, mean ± SEM) [µM]
c1cc(CN2CCCNCCNCCCNCC2)ccc1CN1CCCNCCNCCCNCC1 [AMD3100, reference compound]	> 20	0.00042 ± 0.00014	> 100	≥ 100	> 20	> 1		
[Cu+2].[Cu+2].c1cc(CN2CCCNCCNCCCNCC2)ccc1CN1CCCNCCNCCCNCC1 [Cu2L^1]			≥ 100					
Maraviroc [reference compound]							> 20	0.0029 ± 0.0012
